In general, pIC50 refers to the IC50 on a negative log10 scale, so that one unit is a factor of ten.

pIC50: −log10 of the molar value.

Drawing on patent US9139577B2, “Sulfoximine substituted quinazolines for pharmaceutical compositions” (Boehringer Ingelheim International GmbH, priority 2013, dated 2015), this text covers IC50 for 46 compounds.

This assay deals with MNK2a (Homo sapiens (Human), UniProt Q9HBH9). Briefly: MNK2a in vitro kinase assay (Assay 2), ADP-Glo. The class given is biochemical. The note with it: read-out: MNK2 IC50. The protocol: B. MNK2a In vitro Kinase Assay (Assay 2)
ASSAY SETUP: The inhibition of kinase activity of MNK2a was assessed using pre-activated GST-MNK2a. The white, 384-well OptiPlate F plates were purchased from PerkinElmer. The ADP-Glo Kinase Assay (including ultra pure ATP) was purchased from Promega (V9103). Activated MNK2a was obtained as described in WO2011/104340. […] ID No. 5 of WO 2011/104340 by the C-terminal —CONH2 group, was purchased from Thermo Fisher Scientific. All other materials were of highest grade commercially available. Compounds are tested in either serial dilutions or single dose concentrations. The compound stock solutions are 10 mM in 100% DMSO The serial compound dilutions are prepared in 100% DMSO followed by 1:27.3 intermediate dilution in assay buffer. The final DMSO concentration in assay will be <3%. In the 384-well plates 3 μl of test compound from the intermediate dilution is mixed with 4 μl of the activated MNK2 enzyme (final concentration of 10 nM) and 4 μl of the peptide (final concentration of 25 μM)/ultra pure ATP (final concentration of 20 μM), all dissolved in assay buffer. This step is followed by an incubation time of 90 min, then 10 μl of ADP Glo reagent are added, followed by 40 min of incubation. Then 20 μl of kinase detection reagent are admixed. The plates are sealed and after an incubation period of 30 min, the luminescence signal is measured in an Envision reader to determine the amount of produced ADP. All incubation steps are performed at room temperature. The assay buffer consists of 20 mM HEPES, 2 mM DTT, 0.01% BSA, 20 mM MgCl2 and 0.1% Pluronic F-127.
The luminescent signal generated is proportional to the ADP concentration produced and is correlated with activated MNK2 activity. The analysis of the data is performed by the calculation of the percentage of ATP consumption of activated MNK2 in the presence of the test compound compared to the consumption of ATP in the presence of activated MNK2 without compound. (RLU(sample)−RLU(low control))*100/(RLU(high value)−RLU(low control)) [RLU=relative luminescence units]
[…] values based on dose response curves are calculated with the AssayExplorer software.
For orientation: In ADP-Glo the light output rises with the ADP produced.

MNK2a, sequence (Q9HBH9 whole entry): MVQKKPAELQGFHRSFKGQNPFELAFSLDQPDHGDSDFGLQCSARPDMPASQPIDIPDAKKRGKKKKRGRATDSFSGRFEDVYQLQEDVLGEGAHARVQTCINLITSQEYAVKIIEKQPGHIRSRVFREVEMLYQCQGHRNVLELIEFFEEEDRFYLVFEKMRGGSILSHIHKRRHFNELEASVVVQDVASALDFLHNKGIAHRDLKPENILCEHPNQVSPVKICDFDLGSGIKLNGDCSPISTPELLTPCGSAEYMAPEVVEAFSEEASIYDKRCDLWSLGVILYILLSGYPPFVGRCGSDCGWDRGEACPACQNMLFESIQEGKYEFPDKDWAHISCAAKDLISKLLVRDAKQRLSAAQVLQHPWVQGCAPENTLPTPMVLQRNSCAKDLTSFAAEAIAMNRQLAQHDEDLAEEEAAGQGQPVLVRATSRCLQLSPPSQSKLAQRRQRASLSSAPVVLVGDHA

With `Cc1cc(N=S(C)(C)=O)cc2ncnc(Nc3ccc(F)cc3OC(C)C(F)(F)F)c12` (racemic) [Example 1.013], the negative-log IC50 (pIC50) is 8.70. Turning to `Cc1cc(N=S(C)(C)=O)cc2ncnc(Nc3ccc(C#N)cc3OC(C)C(F)(F)F)c12` (stereo not shown) [Example 1.001], the negative-log IC50 (pIC50) is 7.77. The value for `CC(Oc1ncccc1Nc1ncnc2cc(N=S(C)(C)=O)cc(F)c12)C(F)(F)F` (stereo not shown) [Example 1.007] was 8.10.

On to `Cc1cc(C(Oc2cc(F)ccc2Nc2ncnc3cc(N=S(C)(C)=O)cc(C)c23)C(F)(F)F)on1` (stereo not shown) [Example 1.010], for which the pIC50 is 7.77. For `Cc1cc(N=S(C)(C)=O)cc2ncnc(Nc3cccnc3OC(C)C(F)(F)F)c12` (stereo not shown) [Example 1.017], the negative logarithm of the IC50 (pIC50) was 7.92. For the compound `Cc1cc(N=S2(=O)CCCC2)cc2ncnc(Nc3ccc(F)cc3OC(C)C(C)(C)C#N)c12` (stereo not shown) [Example 2.007], the pIC50 is 8.52. As for `Cc1cc(N=S(C)(C)=O)cc2ncnc(Nc3cccnc3O[C@H](C)C(=O)NCC(F)(F)F)c12` [Example 2.013], the negative-log IC50 (pIC50) was 8.70. For `CC(C)Oc1ncccc1Nc1ncnc2cc(N=S(C)(C)=O)cc(F)c12` [Example 2.015], the pIC50 is 6.72. As for `Cc1cc([C@@H](C)Oc2cc(F)ccc2Nc2ncnc3cc(N=S4(=O)CCNCC4)cc(C)c23)on1` [Example 2.016], the pIC50 was 9.00. `Cc1cc(N=S2(=O)CC[C@H](N)C2)cc2ncnc(Nc3ccc(F)cc3O[C@H](C)C(=O)NCC(F)(F)F)c12` (stereo partly shown) [Example 2.019]: the pIC50 was 9.00. Consider `Cc1cc(N=S2(=O)CC[C@@H](N)C2)cc2ncnc(Nc3ccc(F)cc3O[C@H](C)C(=O)NCC(F)(F)F)c12` (stereo partly shown) [Example 2.020], for which the pIC50 is 8.52. Take `Cc1cc(N=S2(=O)CCC2)cc2ncnc(Nc3cccnc3O[C@H](C)C(=O)NCC(F)F)c12` [Example 2.021]: the pIC50 is 8.70. The value for `Cc1cc(N=S2(=O)CCCC2)cc2ncnc(Nc3cccnc3O[C@H](C)C(=O)NCC(F)(F)F)c12` [Example 2.022] was 8.70. Regarding `Cc1cc(N=S2(=O)CCC(O)C2)cc2ncnc(Nc3ccc(F)cc3O[C@H](C)C(=O)NCC(F)(F)F)c12` (stereo partly shown) [Example 2.023], the pIC50 is 8.70.

For `C[C@@H](Oc1cc(F)ccc1Nc1ncnc2cc(N=S3(=O)CC4(COC4)C3)cc(Cl)c12)C(=O)NCC(F)(F)F` [Example 2.024], the negative logarithm of the IC50 (pIC50) was 8.52. As to `C[C@@H](Oc1cc(F)ccc1Nc1ncnc2cc(N=S(C)(=O)C3CCOCC3)cc(F)c12)C(=O)NCC(F)(F)F` (stereo partly shown) [Example 2.025], the negative-log IC50 (pIC50) was 8.15. On to `C[C@@H](Oc1cc(F)ccc1Nc1ncnc2cc(N=S3(=O)CC(C)(C)C3)cc(F)c12)C(=O)NCC#N` [Example 2.026], for which the negative logarithm of the IC50 (pIC50) is 9.00.

On to `Cc1cc(N=S(C)(=O)C2CCNC2)cc2ncnc(Nc3ccc(F)cc3O[C@H](C)C(=O)NCC(F)(F)F)c12` (stereo partly shown) [Example 2.028], for which the pIC50 is 8.52. Regarding `Cc1cc(N=S(C)(=O)C2CCOCC2)cc2ncnc(Nc3ccc(F)cc3O[C@H](C)C(=O)NCC(F)(F)F)c12` (stereo partly shown) [Example 2.029], the negative logarithm of the IC50 (pIC50) was 8.40. Turning to `COc1cc(N=S(C)(=O)C2CC2)cc2ncnc(Nc3ccc(F)cc3O[C@H](C)C(=O)NCC(F)(F)F)c12` (stereo partly shown) [Example 2.030], the pIC50 was 8.40. With `C[C@@H](Oc1ncccc1Nc1ncnc2cc(N=S(C)(C)=O)cc(F)c12)C(=O)NCC(F)(F)F` [Example 2.031], the pIC50 was 8.00. As to `COC(=O)N1CC2(C1)CS(=O)(=Nc1cc(C)c3c(Nc4ccc(F)cc4O[C@H](C)C(=O)NCC(F)(F)F)ncnc3c1)C2` [Example 2.032], the pIC50 is 9.00. Regarding `C[C@@H](Oc1cc(F)ccc1Nc1ncnc2cc(N=S3(=O)CCCC3)cc(F)c12)C(=O)NCC#N` [Example 2.033], the pIC50 is 8.40. With `Cc1cc(N=S2(=O)CC(C)(C)C2)cc2ncnc(Nc3ccc(Cl)cc3O[C@H](C)C(=O)N[C@@H](C)C(F)(F)F)c12` [Example 2.034], the pIC50 is 9.00. Turning to `Cc1cc(N=S2(=O)CCC(C)C2)cc2ncnc(Nc3ccc(F)cc3O[C@H](C)C(=O)NCC(F)(F)F)c12` (stereo partly shown) [Example 2.035], the pIC50 was 8.70. For `Cc1cc(N=S2(=O)CCC2)cc2ncnc(Nc3ccc(F)cc3O[C@H](CO)CF)c12` [Example 2.036], the pIC50 is 8.40. As to `C[C@@H](Oc1cc(F)ccc1Nc1ncnc2cc(N=S3(=O)CC(C)(C)C3)cc(Cl)c12)C(=O)NCC(F)(F)F` [Example 2.037], the pIC50 was 8.70. `Cc1cc(N=S2(=O)CC3(COC3)C2)cc2ncnc(Nc3ccc(F)cc3O[C@H](C)C(=O)NCC(F)(F)F)c12` [Example 2.038]: the negative-log IC50 (pIC50) was 8.52. For `Cc1cc(N=S2(=O)CCC2)cc2ncnc(Nc3cccnc3O[C@H](C)C(=O)NCC(F)(F)F)c12` [Example 2.039], the pIC50 was 8.52.

Take `C[C@@H](Oc1cc(F)ccc1Nc1ncnc2cc(N=S(C)(=O)C(C)(C)C)cc(F)c12)C(=O)NCC(F)(F)F` (stereo partly shown) [Example 2.040]: the negative logarithm of the IC50 (pIC50) is 7.74.

For the compound `Cc1cc(N=S2(=O)CCC2)cc2ncnc(Nc3ccc(F)cc3O[C@H](C)C(=O)NC(C(F)(F)F)C(F)(F)F)c12` [Example 2.041], the negative logarithm of the IC50 (pIC50) is 9.00. `Cc1cc(N=S(C)(=O)C2CC2)cc2ncnc(Nc3ccc(F)cc3O[C@H](C)C(=O)NCC(F)(F)F)c12` (stereo partly shown) [Example 2.042]: the pIC50 is 8.30. Take `Cc1cc(N=S2(=O)CCC2)cc2ncnc(Nc3ccc(F)cc3O[C@H](CO)C(F)(F)F)c12` [Example 2.043]: the negative logarithm of the IC50 (pIC50) was 8.70. Take `Cc1cc(N=S2(=O)CC(C)(C)C2)cc2ncnc(Nc3ccc(F)cc3O[C@H](C)C(=O)NCC(F)(F)F)c12` [Example 2.044]: the negative-log IC50 (pIC50) was 9.00. The value for `Cc1cc(N=S2(=O)CC3(COC3)C2)cc2ncnc(Nc3ccc(Cl)cc3O[C@H](C)C(=O)N[C@@H](C)C(F)(F)F)c12` [Example 2.045] was 9.00; that for `Cc1cc(N=S(C)(=O)C(C)C)cc2ncnc(Nc3ccc(F)cc3O[C@H](C)C(=O)NCC(F)(F)F)c12` (stereo partly shown) [Example 2.046] was 8.52. On to `COc1cc(N=S2(=O)CCC2)cc2ncnc(Nc3ccc(F)cc3O[C@H](C)C(=O)NCC(F)(F)F)c12` [Example 2.047], for which the negative logarithm of the IC50 (pIC50) is 8.52. Consider `Cc1cc(N=S(C)(C)=O)cc2ncnc(Nc3ccc(F)cc3OC(C)Cn3ccnc3)c12` (stereo not shown) [Example 3.004], for which the pIC50 was 7.77.

`Cc1cc(N=S(C)(C)=O)cc2ncnc(Nc3ccc(F)cc3OCC#N)c12` [Example 3.005]: the pIC50 was 9.00. `Cc1cc(N=S(C)(C)=O)cc2ncnc(Nc3ccc(F)cc3OC(C)C3CCCO3)c12` (stereo not shown) [Example 3.010]: the pIC50 was 7.64. As to `COc1cc(N=S2(=O)CCCC2)cc2ncnc(Nc3ccc(F)cc3O[C@H](C)C(=O)NCC(F)(F)F)c12` [Example 3.011], the negative-log IC50 (pIC50) was 8.70. As to `CCC(Oc1cc(F)ccc1Nc1ncnc2cc(N=S(C)(C)=O)cc(C)c12)C(=O)OC` (stereo not shown) [Example 3.017], the pIC50 is 6.86. Take `Cc1cc(N=S(C)(C)=O)cc2ncnc(Nc3ccc(F)cc3OC(C)c3ccnn3C)c12` (stereo not shown) [Example 3.023]: the pIC50 is 7.38.

For the compound `Cc1cc(N=S(C)(C)=O)cc2ncnc(Nc3ccc(F)cc3O[C@@H](C)CN)c12` [Example 3.024], the pIC50 is 7.80.

Take `Cc1cc(N=S(C)(C)=O)cc2ncnc(Nc3ccc(F)cc3OC(C)Cn3cccn3)c12` (stereo not shown) [Example 3.034]: the negative logarithm of the IC50 (pIC50) is 7.24.

For the compound `Cc1noc(C(C)Oc2cc(F)ccc2Nc2ncnc3cc(N=S(C)(C)=O)cc(C)c23)n1` (stereo not shown) [Example 3.036], the pIC50 was 8.05.
